Literature values, collected in US20080226719A1, “Combination of Rosiglitazone and Donepezil for Improvement of Cognitive Function” (priority 2005, published 2008).
Like-named read-outs stand apart in the source and are kept apart here.

What was measured:
[1] = system: individuals with mild cognitive impairment; conditions: cited from earlier work; for rate at which patients developed AD: mild cognitive impairment
patients with AD = conditions: cited from earlier work

| Compound | risk of progressing to AD compared to placebo ([1]; carriers of one or two copies of an APOE4 allele, after three years) | rate at which patients developed AD ([1]; at three years, versus placebo) | rate at which patients developed AD ([1]; first twelve months of administration) | patients unchanged or worse (patients with AD; APOE4 carriers with AD, after 30 weeks) [%] | patients showing an improvement in cognitive function (patients with AD; non-APOE4 carriers with AD) [%] |
| --- | --- | --- | --- | --- | --- |
| COc1cc2c(cc1OC)C(=O)C(CC1CCN(Cc3ccccc3)CC1)C2 (centres unmarked) [donepezil] | reduced risk of progressing to AD | no separation between groups | reduce the rate at which patients developed AD | – | – |
| Nc1c2c(nc3ccccc13)CCCC2 [tacrine] | – | – | – | 60 | 83 |
